From patent US9422285B2, “Substituted pyrazolo[1,5-A]-pyridine-3-carboxamides and use thereof” (Bayer Pharma Aktiengesellschaft, priority 2014, dated 2016)
Counter-ions that a name gives are not always drawn.

Molecular target: T1, recombinant guanylate cyclase reporter cell line (Rattus norvegicus, UniProt P19686+P20595)
T1 construct: expressed in transfected cells
T1 sequence (P19686 1-690): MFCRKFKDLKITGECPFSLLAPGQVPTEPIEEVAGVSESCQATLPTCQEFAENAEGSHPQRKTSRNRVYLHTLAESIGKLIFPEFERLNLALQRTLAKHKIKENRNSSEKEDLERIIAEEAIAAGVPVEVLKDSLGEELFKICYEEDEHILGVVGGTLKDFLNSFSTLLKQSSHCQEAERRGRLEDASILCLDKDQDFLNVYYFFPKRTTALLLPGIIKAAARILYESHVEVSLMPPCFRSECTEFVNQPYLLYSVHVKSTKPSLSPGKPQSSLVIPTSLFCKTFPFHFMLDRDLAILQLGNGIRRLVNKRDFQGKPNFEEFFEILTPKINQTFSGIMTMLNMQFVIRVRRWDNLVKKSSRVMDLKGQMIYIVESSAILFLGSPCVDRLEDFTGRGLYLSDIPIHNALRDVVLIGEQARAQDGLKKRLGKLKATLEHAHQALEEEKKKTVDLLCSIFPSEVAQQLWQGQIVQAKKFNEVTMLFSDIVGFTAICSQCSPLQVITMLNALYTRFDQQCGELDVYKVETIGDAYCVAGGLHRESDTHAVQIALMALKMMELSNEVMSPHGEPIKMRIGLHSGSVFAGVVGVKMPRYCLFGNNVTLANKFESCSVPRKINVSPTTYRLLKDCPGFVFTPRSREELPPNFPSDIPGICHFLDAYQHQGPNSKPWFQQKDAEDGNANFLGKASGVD
T1 sequence (P20595 1-619): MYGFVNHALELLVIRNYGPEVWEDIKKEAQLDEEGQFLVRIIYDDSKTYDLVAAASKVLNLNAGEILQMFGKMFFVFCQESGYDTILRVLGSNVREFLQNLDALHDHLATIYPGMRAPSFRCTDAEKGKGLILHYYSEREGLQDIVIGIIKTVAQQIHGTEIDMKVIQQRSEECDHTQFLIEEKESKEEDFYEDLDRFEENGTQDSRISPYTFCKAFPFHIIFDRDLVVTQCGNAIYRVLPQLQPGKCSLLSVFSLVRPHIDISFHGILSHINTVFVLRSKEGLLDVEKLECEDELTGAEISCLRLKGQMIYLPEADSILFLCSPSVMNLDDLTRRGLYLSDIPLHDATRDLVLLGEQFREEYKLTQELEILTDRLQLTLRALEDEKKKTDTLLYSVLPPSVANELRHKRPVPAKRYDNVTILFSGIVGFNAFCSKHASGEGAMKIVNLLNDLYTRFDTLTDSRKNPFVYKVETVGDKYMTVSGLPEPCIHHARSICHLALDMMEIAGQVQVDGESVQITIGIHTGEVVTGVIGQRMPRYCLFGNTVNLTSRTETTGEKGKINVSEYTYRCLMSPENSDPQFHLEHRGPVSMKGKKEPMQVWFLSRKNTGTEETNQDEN
Assay: Effect on a recombinant guanylate cyclase reporter cell line (B-2)
Format: cell-based
Conditions: in some cases mean values for individual determinations
Method: B-2. Effect on a Recombinant Guanylate Cyclase Reporter Cell Line
The cellular effect of the inventive compounds is determined using a recombinant guanylate cyclase reporter cell line, as described in F. Wunder et al., Anal. Biochem. 339, 104-112 (2005).
Representative MEC values (MEC=minimum effective concentration) for the inventive compounds are shown in the table below (in some cases as mean values for individual determinations): […]

Structure (SMILES) | MEC (minimum effective concentration)
Cc1cc(OCc2c(F)cccc2F)n2nc(C)c(C(=O)NN3CCN(C)CC3)c2c1 [Example 173, 7-[(2,6-Difluorobenzyl)oxy]-2,5-dimethyl-N-(4-methylpiperazin-1-yl)pyrazolo[1,5-a]pyridine-3-carboxamide] | 1.0 µM
Cc1cc(OCc2c(F)cccc2F)n2nc(C)c(C(=O)NCC(N)c3csc(C)n3)c2c1 (racemic) [Example 73, rac-N-[2-Amino-2-(2-methyl-1,3-thiazol-4-yl)ethyl]-7-[(2,6-difluorobenzyl)oxy]-2,5-dimethylpyrazolo[1,5-a]pyridine-3-carboxamide trifluoroacetate] | 3.0 µM
COC(=O)[C@@H](N)CCCCNC(=O)c1c(C)nn2c(OCc3c(F)cccc3F)cc(C)cc12 [Example 131, Methyl N^6-({7-[(2,6-difluorobenzyl)oxy]-2,5-dimethylpyrazolo[1,5-a]pyridin-3-yl}carbonyl)-L-lysinate] | 3.0 µM
Cc1cc(OCc2c(F)ccc(F)c2F)n2nc(C)c(C(=O)NCc3ccccc3-c3cccnc3)c2c1 [Example 14, 2,5-Dimethyl-N-[2-(pyridin-3-yl)benzyl]-7-[(2,3,6-trifluorobenzyl)oxy]pyrazolo[1,5-a]pyridine-3-carboxamide] | 0.3 µM
COc1ccc2c(c1)C(NC(=O)c1c(C)nn3c(OCc4c(F)cccc4F)cc(C)cc13)CCN2 (racemic) [Example 102, rac-7-[(2,6-Difluorobenzyl)oxy]-N-(6-methoxy-1,2,3,4-tetrahydroquinolin-4-yl)-2,5-dimethylpyrazolo[1,5-a]pyridine-3-carboxamide] | 1.0 µM
CC(=O)NCCNC(=O)c1c(C)nn2c(OCc3c(F)cccc3F)cc(C)cc12 [Example 96, N-(2-Acetamidoethyl)-7-[(2,6-difluorobenzyl)oxy]-2,5-dimethylpyrazolo[1,5-a]pyridine-3-carboxamide] | 10 µM
Cc1cc(OCc2c(F)ccc(F)c2F)n2nc(C)c(C(=O)NCCN3CCOCC3)c2c1 [Example 15, 2,5-Dimethyl-N-[2-(morpholin-4-yl)ethyl]-7-[(2,3,6-trifluorobenzyl)oxy]pyrazolo[1,5-a]pyridine-3-carboxamide] | 3.0 µM
Cc1cc(OCc2c(F)cccc2F)n2nc(C)c(C(=O)NCC(C)(C)N)c2c1 [Example 1, N-(2-Amino-2-methylpropyl)-7-[(2,6-difluorobenzyl)oxy]-2,5-dimethylpyrazolo[1,5-a]pyridine-3-carboxamide formate] | 2 µM
Cc1cc(OCc2c(F)cccc2F)n2nc(C)c(C(=O)NCC(N)c3ccc4c(c3)OCCO4)c2c1 (racemic) [Example 110, rac-N-[2-Amino-2-(2,3-dihydro-1,4-benzodioxin-6-yl)ethyl]-7-[(2,6-difluorobenzyl)oxy]-2,5-dimethylpyrazolo[1,5-a]pyridine-3-carboxamide] | 3.0 µM
Cc1cc(OCc2c(F)cccc2F)n2nc(C)c(C(=O)N[C@@H](CC(=O)OC(C)(C)C)CC(C)C)c2c1 [Example 37, tert-Butyl (3R)-3-[({7-[(2,6-difluorobenzyl)oxy]-2,5-dimethylpyrazolo[1,5-a]pyridin-3-yl}carbonyl)amino]-5-methylhexanoate] | 10 µM
Cc1cc(OCc2c(F)cccc2F)n2nc(C)c(C(=O)NCC(C)(N)CC(F)F)c2c1 (single isomer, unassigned) [Example 47, ent-N-(2-Amino-4,4-difluoro-2-methylbutyl)-7-[(2,6-difluorobenzyl)oxy]-2,5-dimethylpyrazolo[1,5-a]pyridine-3-carboxamide] | 1.0 µM
Cc1cc(OCc2c(F)cccc2F)n2nc(C)c(C(=O)NC(CN)c3cccc(OC(F)(F)F)c3)c2c1 (racemic) [Example 132, rac-N-{2-Amino-1-[3-(trifluoromethoxy)phenyl]ethyl}-7-[(2,6-difluorobenzyl)oxy]-2,5-dimethylpyrazolo[1,5-a]pyridine-3-carboxamide] | 1.0 µM
Cc1cc(OCc2c(F)cccc2F)n2nc(C)c(C(=O)NNc3ccc(F)cc3)c2c1 [Example 66, 7-[(2,6-Difluorobenzyl)oxy]-N′-(4-fluorophenyl)-2,5-dimethylpyrazolo[1,5-a]pyridine-3-carbohydrazide trifluoroacetate] | 0.3 µM
Cc1cc(OCc2c(F)cccc2F)n2nc(C)c(C(=O)NCC(C)(N)CCF)c2c1 (racemic) [Example 48, rac-N-(2-Amino-4-fluoro-2-methylbutyl)-7-[(2,6-difluorobenzyl)oxy]-2,5-dimethylpyrazolo[1,5-a]pyridine-3-carboxamide] | 0.3 µM
Cc1cc(OCc2c(F)ccc(F)c2F)n2nc(C)c(C(=O)NCCC3(O)CCCC3)c2c1 [Example 5, N-[2-(1-Hydroxycyclopentyl)ethyl]-2,5-dimethyl-7-[(2,3,6-trifluorobenzyl)oxy]pyrazolo[1,5-a]pyridine-3-carboxamide] | 0.3 µM
Cc1cc(OCc2c(F)cccc2F)n2nc(C)c(C(=O)NCCCCCC#N)c2c1 [Example 63, N-(5-Cyanopentyl)-7-[(2,6-difluorobenzyl)oxy]-2,5-dimethylpyrazolo[1,5-a]pyridine-3-carboxamide] | 1.0 µM
CCCC(C)(N)CNC(=O)c1c(C)nn2c(OCc3c(F)cccc3F)cc(CC)cc12 (racemic) [Example 172, rac-N-(2-Amino-2-methylpentyl)-7-[(2,6-difluorobenzyl)oxy]-5-ethyl-2-methylpyrazolo[1,5-a]pyridine-3-carboxamide] | 0.3 µM
CCCC[C@H](CO)NC(=O)c1c(C)nn2c(OCc3c(F)cccc3F)cc(C)cc12 [Example 144, 7-[(2,6-Difluorobenzyl)oxy]-N-[(2R)-1-hydroxyhexan-2-yl]-2,5-dimethylpyrazolo[1,5-a]pyridine-3-carboxamide] | 0.1 µM
CCCC(C)(N)CNC(=O)c1c(C)nn2c(OCc3c(F)cccc3F)cc(OC)cc12 (racemic) [Example 171, rac-N-(2-Amino-2-methylpentyl)-7-[(2,6-difluorobenzyl)oxy]-5-methoxy-2-methylpyrazolo[1,5-a]pyridine-3-carboxamide] | 1.0 µM
Cc1cc(OCc2c(F)cccc2F)n2nc(C)c(C(=O)N[C@@H]3CNC[C@@H]3F)c2c1 (relative stereo) [Example 128, rel-7-[(2,6-Difluorobenzyl)oxy]-N-[(3R,4S)-4-fluoropyrrolidin-3-yl]-2,5-dimethylpyrazolo[1,5-a]pyridine-3-carboxamide] | 1.0 µM
Cc1cc(OCc2c(F)cccc2F)n2nc(C)c(C(=O)NC3Cc4ccccc4C3N)c2c1 (stereo not shown) [Example 70, N-(1-Amino-2,3-dihydro-1H-inden-2-yl)-7-[(2,6-difluorobenzyl)oxy]-2,5-dimethylpyrazolo[1,5-a]pyridine-3-carboxamide] | 3.0 µM
Cc1cc(OCc2c(F)cccc2F)n2nc(C)c(C(=O)NC3CC(C)Nc4ccc(C(F)(F)F)nc43)c2c1 (single isomer, unassigned; ent-7) [Example 86, ent-7-[(2,6-Difluorobenzyl)oxy]-2,5-dimethyl-N-[2-methyl-6-(trifluoromethyl)-1,2,3,4-tetrahydro-1,5-naphthyridin-4-yl]pyrazolo[1,5-a]pyridine-3-carboxamide] | 3.0 µM
